This is an account of results in patent publication US20260002950A1, “Uses of 5-Aminovaleric Acid Betaine and Compositions Related Thereto” (Emory University, priority 2021, published 2026).

Entries after “also recorded” stand apart in the source; their conditions may differ.

Data set [1] is described as follows: Concentrations of VB in tissues and circulation of conventional mice (mass spectrometry). The format is in vivo. As to conditions: endogenous. The text has this:
To identify microbial metabolites that could impact mitochondrial function, the metabolome of liver and liver mitochondria was examined in mice with an intact microbiome (“conventionalized” mice in which germ-free mice were reconstituted with microbiome) compared to liver and liver mitochondria from germ-free mice (FIG. 1A). The top discriminatory metabolite has an accurate mass m/z of 160.1332 by ultra-high-resolution mass spectrometry, corresponding to predicted elemental composition C8H18NO2. This metabolite is found in liver and other tissues, portal and peripheral circulation, and cecum of conventional but not germ-free mice (FIG. 1B). Authentic standard co-elution and MS/MS experiments show the identity of 160.1332 m/z to be delta-valerobetaine (VB) (FIG. 1C). Concurrent analyses of propionylcholine and valine betaine, similar molecules with identical elemental compositions, conclusively excluded these structures. VB was not present in the mouse diet and was not detectable in other samples collected from GF mice. […] Concentrations were 9-26 μM in the portal vein, with higher concentrations in the liver (75-190 μmol/kg wet weight) and lower concentrations in the peripheral plasma (2-10 μM) indicating tissue accumulation.

The test system of data set [2] is human HepG2 cells. The experiment in a line: Cell content of carnitine in HepG2 cells, VB dose-response. The format is cell-based. As to conditions: VB at 10 μM, vs control cells. Here is the method: (§1) Dose-response experiments with VB were performed in vitro and in vivo to examine metabolic effects of VB. The mitochondrial carnitine shuttle is the top metabolic pathway associated with VB in human HepG2 cells. […] The carnitine shuttle uses carnitine for transport of long-chain fatty acyl chains into mitochondria for fatty acid β-oxidation. […] The effect of VB on inhibition of palmitate-dependent oxygen consumption rate is confirmed by stable isotope tracer studies of palmitate metabolism, which show VB inhibits formation of ^13C16 palmitoylcarnitine from ^13C16 palmitate and decreases the formation of ^13C2 acetyl-CoA (FIG. 2D). […] Thus, VB inhibits mitochondrial long chain fatty acid metabolism through effects on carnitine and operation of the carnitine shuttle.

For data set [3], the system named is HepG2 cells. The experiment in a line: Palmitate-dependent mitochondrial O2 consumption rate in HepG2 cells. The format is cell-based, human. How it is done:
[…] Effect of VB is most pronounced in the spare capacity measured after addition of the uncoupler FCCP.
as §1

Data set [4] relates to carnitine shuttle. The experiment in a line: Stable isotope tracer study of palmitate metabolism in cultured cells. The format is cell-based. How it is done:
as §1

In data set [5] the test system is mice. The experiment in a line: VB treatment of mice, daily intraperitoneal injection for 1 week: carnitine and metabolite profiles. The format is in vivo. How it is done:
Mice of each sex were given daily intraperitoneal injection with saline (n=5), VB at 10 mg/kg (n=3) or VB at 100 mg/kg (n=8) for 1 week. Kruskal-Wallis test with Dunn's multiple comparisons test to identify pairwise differences in GraphPad Prism 6.0.
(§2) As observed in cells, the carnitine shuttle is the top metabolic pathway associated with VB-treatment in mice. VB treatment decreases circulating (FIG. 2A), hepatic (FIG. 2B), heart, and brain carnitine. Furthermore, VB treatment alters circulating and systemic acylcarnitine and acyl-CoA profiles. In whole tissue, VB increases hepatic and cardiac palmitoyl-CoA and decreases other short, medium, and long-chain acylcarnitines and CoAs under fasted conditions. In mitochondria, VB decreases the abundance of long-chain fatty acyl-CoAs and carnitines, consistent with a decrease in long-chain fatty acid β oxidation. VB also decreases circulating and hepatic β-hydroxybutyrate, a product of mitochondrial β-fatty acid oxidation.

Data set [6] deals with mice. The experiment in a line: VB treatment of mice for 3 days ± fasting: hepatic lipid accumulation. The format is in vivo. Here is the method: Mice of each sex were given daily intraperitoneal injection with saline (n=5) or VB at 100 mg/kg (n=5) for 3 days±fasting.
as §2

The subject of data set [7] is conventional mice. The experiment in a line: 8-week VB treatment of conventional mice on Western or control diet: adiposity. The format is in vivo. The text has this:
(n=5 per group, one-tailed t-test).
The relative increases are most pronounced in VAT, where fat mass in VB-treated mice on a Western diet was increased 80% in male mice and 60% in female mice compared to Western diet alone. […] The long-term consequences of VB inhibition of mitochondrial β-oxidation of fatty acids therefore include effects on body composition in mice receiving Western diet, with specific and pronounced effects on visceral adipose tissue mass.
(§3) VB effects in fasting are particularly intriguing as a mechanism causing obesity because decreasing mitochondrial β-oxidation of lipids mobilized from adipose tissue during fasting could cause a long-term increase in fat deposition. Therefore, experiments were performed to determine whether long-term VB treatment could increase weight gain and adiposity in mice. This was tested this in both GF and conventional mice, with or without a high-fat/sugar WD. Backhead et al. report a resistance to diet-induced obesity in germ-free mice. PNSA, 104 (3), 2007. […] Furthermore, VB treatment exacerbated the development of hepatic steatosis in these mice (FIG. 4E). Similarly, VB increased adipose tissue fat mass (VAT, SubQ, BAT) in conventional mice after 8 weeks with the WD. The relative increases were most pronounced in white adipose compartments (VAT, SubQ) where fat mass in VB treated GF and conventional mice on a WD was increased over 80% compared to WD alone.
(§4) Although WD-fed mice gained more weight than control fed mice, no differences in circulating VB were observed between WD or control-diet-fed conventional mice. These effects were not observed in GF or conventional mice fed the control diet.

Data set [8] has as its system GF mice. The experiment in a line: 6-week VB treatment of germ-free (GF) mice on Western or control diet. The format is in vivo. How it is done:
FIG. 4A illustrates experiments on long-term VB treatment in GF mice. Male GF mice were administered PBS or VB in conjunction with a control diet (CD) or WD for 6 weeks with body weight recorded as percentage weight gain (two-way repeat measures ANOVA with multiple comparisons per day.
as §3, §4

The test system of data set [9] is PPAR-response element. The experiment in a line: PPAR-response element-linked luciferase activity. The format is cell-based. The text has this: An alternative interpretation of VB activity involves an adaptive response termed mitohormesis, a process by which a minor impairment increases gene expression of mitochondrial systems which improve metabolic function of mitochondria. […] With this interpretation, VB-induced lipid accumulation could drive activity of SIRT1, PGC-1a and PPAR-a pathways which control carnitine homeostasis, mitochondrial bioenergetics, and lipid metabolism. […] Thus, VB may function through a mitohormesis response mechanism and in conjunction with diet and aging, contribute to age dependent changes in adiposity.

Data set [10] concerns mouse cardiomyocytes. As to conditions: cited from earlier work.
For data set [11], the target named is T1, γ-butyrobetaine hydroxylase (Homo sapiens, UniProt O75936).
T1 sequence (O75936 1-387): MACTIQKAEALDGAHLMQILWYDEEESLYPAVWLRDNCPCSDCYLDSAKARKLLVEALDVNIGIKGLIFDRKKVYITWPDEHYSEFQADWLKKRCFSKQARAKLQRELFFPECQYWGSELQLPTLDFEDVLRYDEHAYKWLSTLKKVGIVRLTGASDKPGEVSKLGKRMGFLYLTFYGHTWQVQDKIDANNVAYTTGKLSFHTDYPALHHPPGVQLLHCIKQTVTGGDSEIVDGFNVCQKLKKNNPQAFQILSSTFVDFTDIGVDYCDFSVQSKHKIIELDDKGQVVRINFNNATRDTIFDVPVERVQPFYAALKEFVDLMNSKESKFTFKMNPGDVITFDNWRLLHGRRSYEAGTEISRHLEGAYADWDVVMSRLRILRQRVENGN
Particulars: cited from earlier work.

Data set [12] concerns mice. As to conditions: cited from earlier work.

In the case of `C[N+](C)(C)CCCCC(=O)[O-]` [VB, 5-(trimethylammonio) pentanoate], in [1], the “Concentration of VB in the cecum” value was “millimolar range”, the “Concentration of VB in the liver” value is on record as 75-190 μmol/kg wet weight, the “Concentration of VB in the peripheral plasma” value lay within 2 to 10 µM and the “Concentration of VB in the portal vein” value was 9 to 26 µM. Moreover, the “Concentration of VB in the colon” value in data set [1] (relative to cecum) is on record as “somewhat lower concentrations”. For the same compound, in [2], the “Cell content of carnitine” value was “decreased to half that of control cells”. Moreover, the “Palmitate-dependent mitochondrial oxygen respiration (O2 consumption rate)” value in [3] (HepG2, 12 h without glucose, glutamine and pyruvate (mimicking fasting), VB 10 or 50 μM) was “inhibited; also recorded: dose-dependent decrease”. Besides, the “Basal, ADP-linked O2 consumption rate, spare capacity, non-mitochondrial respiration” value in data set [3] (glucose, glutamine and pyruvate present at high concentration in culture media) is reported as “little decrease”. Besides, in data set [4] (cultured cells), the “Formation of 13C16 palmitoylcarnitine from 13C16 palmitate” value is “inhibits”. Also, the “Formation of 13C2 acetyl-CoA from labeled palmitate” value in data set [4] (cultured cells, n=3) was “decreases”. In addition, in data set [5], the “Circulating and hepatic β-hydroxybutyrate” value is “decreases”. For the same compound, in data set [5] (VB 10 or 100 mg/kg i.p. daily, 1 week), the Circulating carnitine result is “decreases”. Further, in [5] (VB treatment), the Brain carnitine entry was “decreases”, the Heart carnitine entry is “decreases” and the Hepatic carnitine entry is on record as “decreases”. Besides, the “Triacylglycerol and diacylglycerol species in liver, heart and brain” value in [5] (lipid profiling) is listed as “increases”. The “Abundance of long-chain fatty acyl-CoAs and carnitines in mitochondria” value in data set [5] (mitochondria) was “decreases”. The “Liver triglycerides (hepatic steatosis)” value in data set [6] (male and female mice, VB 100 mg/kg i.p. 3 days, fasted) is given as “exacerbates hepatic steatosis; also recorded: increase”. Moreover, the “Liver lipid deposits, Oil Red O staining” value in [6] (mice, especially under fasted conditions) is reported as “increases lipid deposits”. In addition, the “Hepatic and cardiac palmitoyl-CoA” value in data set [6] (mice, whole tissue, fasted conditions) is listed as “increases”. Also, the “Weight of brown adipose tissue (BAT)” value in [7] (8 weeks) is recorded as “increased by VB in a diet dependent manner after 8-week VB treatment in males but not females; also recorded: increases brown adipose tissue (BAT) but in a less consistent manner”. In [7] (Western diet, 8 weeks), the “Weight of subcutaneous white adipose tissue (WAT)” value is given as “increased by VB in a diet-dependent manner; also recorded: substantial increases” and the “Weight of visceral adipose tissue (VAT)” value is reported as “increased by VB in a diet dependent manner; also recorded: substantial increases”. Moreover, the “Increase of fat mass in white adipose compartments (VAT, SubQ) vs WD alone” value in data set [7] (conventional mice on WD) is given as “over 80%”. Further, the “Adipose tissue fat mass (VAT, SubQ, BAT)” value in [7] (conventional mice, WD, 8 weeks) is “increased”. The “Severity of hepatic steatosis” value in data set [7] (conventional mice, Western diet, 8 weeks) is “Trends for increase”. Moreover, the Total body mass result in data set [7] (conventional mice, Western diet, after 8 weeks, not p<0.05) is listed as “Trends for increase”. The “Effects on adiposity, steatosis and body mass on control diet” value in [7] (conventional mice, control diet) is listed as “not observed”. Further, in data set [7] (female mice, Western diet, 8 weeks), the “Increase of visceral adipose tissue (VAT) fat mass vs Western diet alone” value was 60%. In [7] (male mice, Western diet, 8 weeks), the “Increase of visceral adipose tissue (VAT) fat mass vs Western diet alone” value was 80%. For the same compound, in data set [8] (GF mice), the “Carnitine concentrations after parenteral VB dosing” value was “equivalent to conventional mice”. In data set [8] (GF mice on WD), the “Increase of fat mass in white adipose compartments (VAT, SubQ) vs WD alone” value is reported as “over 80%”. Besides, in data set [8] (GF mice, WD, six weeks), the “Adipose tissue fat mass in VAT, SubQ and BAT compartments vs WD alone” value is given as “substantial increases”; the Weight gain entry is “increased weight gain”. The “Development of hepatic steatosis” value in [8] (GF mice, WD, six weeks, liver H&E scoring) was “exacerbated”. Moreover, in data set [8] (GF mice, control diet), the “Effects on adiposity, steatosis and body mass on control diet” value is listed as “not observed”. Further, in data set [9], the “PPAR-response element-linked luciferase activity” value is reported as “dose-dependent increase”. For the same compound, the “β-oxidation of fatty acids” value in data set [10] is recorded as “decreases”. For the same compound, in data set [11], the γ-butyrobetaine hydroxylase activity entry is on record as “inhibits”. Further, the Fatty liver result in data set [12] is “exacerbates”.
Regarding `C[N+](C)(C)CC(O)CC(=O)[O-]` (centres unmarked) [carnitine, reference compound], the “Rescue of VB effect on cellular carnitine and palmitoylcarnitine formation” value in data set [4] (addition of carnitine to VB-treated cells) is “restores cellular carnitine and formation of palmitoylcarnitine”.
